# Assay results: patent US20240182475A1 (Université de Lausanne, priority 2021, published 2024)
# Legend:
# [1] = tested on: WT murine primary chondrocytes; assay: Murine primary chondrocyte calcification (Alizarin red); type: cell-based, mouse
# Procedure: (a) WT and Cse-deficient chondrocytes were incubated with a CSE activator (SU004, 50 μM) previously identified by high-through put screen, or with the equivalent volume of DMSO (0.1%) for 24 hours in calcification medium. STS 25 mM was used as a positive control for calcification inhibition. Calcium-containing crystals were stained with Alizarin red and quantified. (b) Cytotoxicity was assessed by LDH measurement and expressed as % over 100% cytotoxicity. (c) IL-6 secretion was measured by ELISA in supernatant of WT chondrocytes incubated with SU004 50 μM or STS 25 mM for 24 hours in calcification medium. (d) Primary human chondrocytes from 3 OA patients (P1, P2, P3) were incubated with SU004 50 μM, or with the equivalent volume of DMSO (0.1%) for 24 hours in calcification medium. Calcium-containing crystals were stained with Alizarin red and quantified. (e) Cytotoxicity was assessed by LDH measurement and expressed as % over 100% cytotoxicity. (f) IL-6 secretion was measured by ELISA in supernatant of human chondrocytes incubated for 24 hours with SU004 50 μM in calcification medium. *p<0.05, ** p<0.01, ****p<0.0001.
# Primary murine chondrocytes were stimulated with secondary calciprotein particles (sCPP) for 24 h in DMEM+10% FBS in presence of C5 or C6 at 50 uM or vehicle (DMSO). Mineralization was analyzed by Alizarin red staining of the cells (A) and quantified (B). Statistical analysis was determined using one-way ANOVA with **p<0.01 and ***p<0.001.
# Chondrocytes were isolated from 6 days old mice (Cse KO, Cse tg, Cbs KO and corresponding WT mice) as described previously (Nasi, So, et al. 2016). Tenocytes were isolated from 6 to 8 weeks old mice (Cse KO and WT) and by double digestion in Collagenase IV NB standard grade (Witec AG). […]
# After incubation in calcification media, supernatant was collected for ELISA and LDH measurement, and cell monolayer was washed in PBS, fixed in 10% formol and crystal deposition analyzed through Alizarin red staining and quantified as previously described
# [2] = molecular target: T1, recombinant human CSE (hCSE) (Homo sapiens, UniProt P32929); assay: High-throughput screening pyruvate assay for CSE activators; type: biochemical; settings: 5 μM; % of pyruvate generated over hCSE alone
# T1 construct: purchased ProteoGenix, France
# Procedure: The chemical reactions involved in the 2 step assay are depicted. In (a) recombinant human CSE (hCSE) is incubated with L-cysteine, generating H2S and pyruvate. In (b) pyruvate is oxidized by pyruvate oxidase (PDX) to generate acetate, carbon dioxide (CO2) and hydrogen peroxide (H2O2). H2O2 then reacts with Amplex Red in a 1:1 stoichiometry to form the red fluorescent product, resorufin. (c) hCSE-dependent pyruvate measurement without enzyme (no pyruvate production), with the specific CSE inhibitor AVG 5 μM (inhibition of pyruvate production) and with the CSE activator calmodulin 5 μM (increased pyruvate production). Results were expressed as the % of pyruvate generated over hCSE alone. (d) Chemical structure of the new small molecule CSE activator SU004. (e) CSE-dependent pyruvate upon incubation of hCSE with L-cysteine and with increasing concentration of SU004. The ability of SU004 to activate hCSE was calculated as % of normalized activity.
# We therefore hypothesized that potential CSE activators could counter these effects and be of therapeutic value in musculoskeletal HC. We set up a screening assay with human recombinant CSE (hCSE) and L-Cysteine as substrate, using as read-out the production of pyruvate as a surrogate of H2S production. As expected, pyruvate was detected only in presence of hCSE. […]
# MOVAS cells [3] = assay: MOVAS cell calcification assay (Alizarin red); type: cell-based, mouse
# Procedure: A) Alizarin red staining of MOVAS cells stimulated with sCPP for 24 h in DMEM+10% FBS and treated or not with 50 uM of compounds. […] Statistical analysis was determined using one-way ANOVA with ***p<0.001. C) Percentage of cytotoxicity (LDH %) in MOVAS treated or not with compounds for 24 h. D) MOVAS cells were seeded onto half-area 96-well plate and incubated overnight. Then C5 or C6 at 50 uM or vehicle (DMSO), L-cysteine at 10 mM, PLP at 5 uM and the H2S sensitive fluorescent probe AzMC at 10 μM were added. The fluorescence was immediately measured in kinetic mode for 2 h at 37° C. with SpectraMax M5 reader, with excitation and emission wavelengths of 365 nm and 450 nm, respectively.
# A) Alizarin red staining of Movas cells stimulated with sCPP for 24 h in DMEM+10% FBS and treated or not with 50 uM of Z20. […] C) Percentage of cytotoxicity (LDH %) in murine chondrocytes treated or not with Z20 for 24 h. Statistical analysis was determined using one-way ANOVA with ***p<0.001.
# Alizarin red staining of MOVAS cells stimulated with sCPP for 24 h in DMEM+10% FBS and treated or not with different concentrations of compounds (A: C6) and (B: Z20). The graphs show Alizarin red absorbance at 570-630 nm. Statistical analysis was determined using one-way ANOVA with *p<0.05, **p<0.01, ***p<0.001.
# CPP were generated by preparing 20 ml DMEM containing 10% FBS, 1 mmol/L CaCl2, 3.5 mmol/L inorganic phosphate (1.36 mmol/L NaH2PO4 and 2.14 mmol/L Na2HPO4) (Aghagolzadeh et al. Atherosclerosis, 2016). After 7 days incubation at 37° C., the suspension was centrifuged at 25000 g for 2 h at 4° C., and the pellet containing CPP was resuspended in 1 ml DMEM and stored at −20° C. until further use.
# Mouse vascular smooth muscle cell line (MOVAS) cells were cultured according to the manufacturer's guidelines in DMEM culture medium supplemented with 10% FBS. Cells were cultured at 37° C. in a humidified atmosphere with 5% CO2. All cell culture experiments in 96-well plates were performed in triplicates and were repeated independently two times.
# For calcification experiments, cells were seeded in 96-well plates at a density of 50,000 cells/well and left to attach for 18 h. Calcification of cell monolayers was induced by CPP (equivalent to 50 μg Ca/mL) for 24 h at 37° C., 5% CO2 in presence of various concentrations of compounds (all in final 0.1% DMSO), or of 0.1% DMSO as a control, to reach a final volume of 200 μl/well. Calcium deposition was assessed by 0.5% w/v Alizarin Red staining (pH 4.2). Briefly, after PBS washing, methanol fixation for 10 min at 4° C., and milli-Q water washing, cells were incubated for 60 min with 200 μL Alizarin Red solution and then washed four times with milli-Q water. Quantification was performed after crystal dissolution with cetylpyridinium chloride (10%) for 18 h. The absorbance was measured at 570 and 630 nm using the Spectramax M5e reader (Molecular Devices). The background (alizarin red staining obtained with cells in the absence of CPP) was subtracted from all values.
# MOVAS cells [4] = assay: Cytotoxicity assay, LDH release; type: cell-based, mouse; settings: at 50 uM
# Procedure: A) Alizarin red staining of MOVAS cells stimulated with CPP for 24 h in DMEM+10% FBS in presence of different concentrations of compound 22401. […] The background (Alizarin red staining obtained with cells in the absence of CPP) was subtracted from all values. B) Percentage of cytotoxicity, as measured by LDH release, in MOVAS cells in the same conditions as A). Statistical analysis was determined using one-way ANOVA with *p<0.05, **p<0.01, ***p<0.001.
# Measurement of lactate dehydrogenase (LDH) as a means of cytotoxicity assay was performed with using CytoTox-ONE Homogeneous Membrane Integrity Assay (Promega) according to the manufacturer's instructions. Values were calculated as percentage of cytotoxicity using the following formula: [(value in sample)−(background)]/[(value in Triton X-100-treated sample)−(background)]×100.
# ATDCS chondrocytes = assay: ATDCS chondrocyte mineralization (Alizarin red); type: cell-based; settings: sCPP 24 h, different concentrations
# Procedure: Alizarin red staining of ATDCS chondrocytes stimulated with sCPP for 24 h in DMEM+10% FBS in presence of different concentrations of compounds C5 and C6. The graphs show Alizarin red absorbance at 570-630 nm. Statistical analysis (in comparison to 0) was determined using one-way ANOVA with *p<0.05, **p<0.01, ***p<0.001, […].
# T1 sequence (P32929 whole entry): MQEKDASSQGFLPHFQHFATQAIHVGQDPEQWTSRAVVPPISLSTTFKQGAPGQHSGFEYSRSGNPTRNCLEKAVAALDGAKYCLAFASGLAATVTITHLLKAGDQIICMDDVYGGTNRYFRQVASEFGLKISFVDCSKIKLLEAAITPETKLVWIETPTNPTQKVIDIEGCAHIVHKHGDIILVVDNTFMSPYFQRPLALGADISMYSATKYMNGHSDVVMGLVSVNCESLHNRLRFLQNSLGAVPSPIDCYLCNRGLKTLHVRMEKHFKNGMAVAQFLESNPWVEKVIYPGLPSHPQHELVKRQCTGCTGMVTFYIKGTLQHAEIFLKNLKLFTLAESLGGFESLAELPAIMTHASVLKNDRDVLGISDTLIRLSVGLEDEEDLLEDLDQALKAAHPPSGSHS
molecule,measurement,setting,value
"N[C@@H](CCS)C(=O)O [homocysteine, reference compound]",Calcification,[1]; WT chondrocytes incubated with 100 μM or 25 μM,significantly decreased
calmodulin,hCSE-dependent pyruvate production,[2],pyruvate up-modulation
N-{1-[(pyridin-2-yl)methyl]-1H-pyrazol-4-yl}benzamide [Compound 12],Calcification assay Max calcification inhibition (%) at the indicated dose of compound (uM),MOVAS cells [3]; at 50 uM,43% at
same,Mineralization (Alizarin red),"MOVAS cells [3]; sCPP 24 h, 50 uM",inhibit murine vascular smooth muscle cells (MOVAS cells) mineralization
same,Mineralization (Alizarin red absorbance 570-630 nm),"MOVAS cells [3]; sCPP 24 h, different concentrations",Dose-dependent effect
same,Cytotoxicity assay LDH release (% of cytotoxicity),MOVAS cells [4],13% at
same,Mineralization (Alizarin red absorbance 570-630 nm),ATDCS chondrocytes,inhibit ATDCS mineralization in vitro in a dose dependent fashion
same,Mineralization (Alizarin red),"[1]; sCPP 24 h, DMEM+10% FBS, 50 uM",inhibit primary murine chondrocyte mineralization
NCCO/C=C/C(N)C(=O)O (stereo not drawn) [AVG],hCSE-dependent pyruvate production,[2],almost complete inhibition
